Results from ChEMBL document CHEMBL3091347, “Comparison of Multiple Linear Regressions and Neural Networks based QSAR models for the design of new antitubercular compounds” (Eur J Med Chem, 2013).
≈ marks a conversion by molar mass, not a printed value.

What was measured:
[1] = tested on: Mycobacterium tuberculosis; test: Antitubercular activity against Mycobacterium tuberculosis; type: functional; conditions: for MIC: Mycobacterium tuberculosis
[2] = Lipophilicity, log P of the compound; conditions: octanol/water
[3] = tested on: Mycobacterium tuberculosis; test: Antitubercular activity against Mycobacterium tuberculosis BCG; type: functional

SMILES	log(1/MIC) [1]	MIC [1] [µg/mL]	logP ([2]; logP)	logP [2]	MIC [3] [µg/mL]	log(1/MIC) [3]
NNC(=O)c1ccco1	1.22	0.06 (≈ 0.476 µM)	-0.139			
NNC(=O)c1c[nH]cn1	-0.9	8 (≈ 63.4 µM)	-2.85			
NNC(=O)c1ccccn1	0.82	0.15 (≈ 1.09 µM)	-1.95			
CC(=O)N(Nc1ccccc1)c1ccccc1	-2	100 (≈ 442 µM)	1.31			
C/C(=N\NC(=O)c1ccncc1)c1cccc(CN2CCCCC2)c1O	-0.21	1.62 (≈ 4.6 µM)	2.55			
CC(C)NNC(=O)c1ccncc1 [IPRONIAZID]	0.4	0.4 (≈ 2.23 µM)		-1.248		
CC(C)Cc1cc(C(=O)NN)ccn1	-1.94	87 (≈ 450 µM)	-0.216			
Cc1cnccc1C(=O)NN	-2.3	200 (≈ 1320 µM)	-1.67			
NNC(=O)/C=C/C(=O)NN	-1.9	80 (≈ 555 µM)				
CCN(CC)c1ccc(/C=N/NC(=O)c2ccncc2)cc1	0.22	0.6 (≈ 2.02 µM)	2.53			
CC(=O)Nc1cc(C(=O)NN)ccn1	-2.62	418 (≈ 2150 µM)	-2.93			
CCC(CC)=NNC(=O)c1ccncc1	1.7	0.02 (≈ 0.0974 µM)	-0.469			
CC(C)CNNC(=O)c1ccncc1	1	0.1 (≈ 0.517 µM)	-0.719			
CC(C)=NNC(=O)c1cccs1	0.35	0.45 (≈ 2.47 µM)	-0.404			
N/N=C/C(CC(=O)c1ccncc1)C(=O)c1ccncc1 (stereo not drawn)	0.82	0.15 (≈ 0.531 µM)	-2.83			
CC(=O)NNC(C)=O	-2.78	600 (≈ 5170 µM)	-3.91			
NNC(=O)c1ccnc(F)c1	-1.61	40.3 (≈ 260 µM)	-2.18			
CNC1C(OC2C(OC3C(O)C(O)C(NC(=N)N)C(O)C3NC(=N)N)OC(C)C2(O)/C=N\NC(=O)c2ccncc2)OC(CO)C(O)C1O (stereo not drawn)	0.82	0.15 (≈ 0.214 µM)				
O=C(NNC(=O)c1ccco1)c1ccco1	-2	100 (≈ 454 µM)	1.38			
O=C(NN=C1CCCCC1)c1ccncc1	2.22	0.01 (≈ 0.046 µM)	-0.334			
CCCCC/C(C)=N/NC(=O)c1ccncc1	1.52	0.03 (≈ 0.129 µM)	0.589			
CCC(C)NNC(=O)c1ccncc1 (stereo not drawn)	0.4	0.4 (≈ 2.07 µM)	-0.719			

SMILES	log(1/MIC) [1]	MIC [1] [µg/mL]	logP ([2]; logP)	logP [2]	MIC [3] [µg/mL]	log(1/MIC) [3]
NNC(=O)Cc1ccccc1	-1.08	12 (≈ 79.9 µM)	-1.22			
CC(C)/C=N\NC(=O)c1ccncc1	1	0.1 (≈ 0.523 µM)	-0.998			
NNC(=O)c1cccc([N+](=O)[O-])c1	0.22	0.6 (≈ 3.31 µM)	-1.1			
CCN(CC)CCN(C)c1ccc(/C=N/NC(=O)c2ccncc2)cc1	1.1	0.08 (≈ 0.226 µM)	2.43			
CON1C(=O)C(=O)N1c1ccc([N+](=O)[O-])cc1	1.52	0.03 (≈ 0.126 µM)	0.963			
Nc1ccc(S(=O)(=O)NNC(=O)c2ccncc2)cc1	-2.78	600 (≈ 2050 µM)	-2.51			
NNC(=O)c1ccnc(Br)c1	-2.12	133 (≈ 616 µM)	-1.46			
NNC(=O)c1c[nH]c(S)n1	-2.4	250 (≈ 1580 µM)	-2.26			
CC(=O)NNC(=O)c1ccco1	-2.78	600 (≈ 3570 µM)	-1.26			
CN(C)NC(=O)c1ccco1	-2.48	300 (≈ 1950 µM)	0.653			
NNC(=O)c1ccnc2ccccc12	-1.9	80 (≈ 427 µM)	-1.35			
Cc1ncnc(O)c1C(=O)NN	-2.6	400 (≈ 2380 µM)	-2.88			
NNS(=O)(=O)c1ccc(N)cc1	-1.4	25 (≈ 134 µM)	-1.85			
CC(C)(C#N)NNC(=O)c1ccncc1	1.22	0.06 (≈ 0.294 µM)	-0.976			
CC(C)=NNC(=O)c1ccncc1	1.7	0.02 (≈ 0.113 µM)	-1.53			
NNC(=O)CN1CSC(N)=N1	-2.48	300 (≈ 1710 µM)		-4.033		
O=C(NO)c1ccncc1	-2.08	120 (≈ 869 µM)	-2.65			
CN1CCC(C(=O)NN)CC1	-2.78	600 (≈ 3820 µM)	-2.49			
NNC(=O)C1CCCO1 (stereo not drawn)	0.52	0.3 (≈ 2.31 µM)	-2.12			
CCN(CC)c1cc(C(=O)NN)ccn1	-2.17	149 (≈ 717 µM)	-0.546			
CC(O)(NNC(=O)c1ccncc1)C(=O)O (stereo not drawn)	1.22	0.06 (≈ 0.266 µM)	-2.78			
NNC(=O)c1cccs1	-0.9	8 (≈ 56.3 µM)	-1.2			

SMILES	log(1/MIC) [1]	MIC [1] [µg/mL]	logP ([2]; logP)	logP [2]	MIC [3] [µg/mL]	log(1/MIC) [3]
NNC(=O)c1ccccc1 [BENZOIC ACID HYDRAZIDE]	0.22	0.6 (≈ 4.41 µM)		-0.845		
N/N=C/C(O)C(O)C(O)C(CC(=O)c1ccncc1)C(=O)c1ccncc1 (stereo not drawn)	1.4	0.04 (≈ 0.107 µM)		-5.16		
CN(C)C(=O)N1CCC(C(=O)NN)CC1	-2.78	600 (≈ 2800 µM)	-3.12			
NNC(=O)c1ccc(C(=O)NN)cc1			-3.83		3 (≈ 15.4 µM)	-0.4771
CC(=O)NN			-2.78		150 (≈ 2020 µM)	-2.176
O=C(NNS(=O)(=O)c1ccccc1)c1ccncc1			-1.29		3 (≈ 10.8 µM)	-0.4771
O=C(NNC1CCCCC1)c1ccncc1			-0.055		5 (≈ 22.8 µM)	-0.699
O=C(NN=C1CCCCC1)c1cccs1			0.789		3 (≈ 13.5 µM)	-0.4771
CC(C)CCOc1ccc(/C=N/NC(=O)c2ccncc2)cc1			3.34		0.05 (≈ 0.161 µM)	1.301
CCCCCC/C=N/NC(=O)c1cccs1			1.84		6 (≈ 25.2 µM)	-0.7782
O=CNNC(=O)c1ccncc1			-2.99		3 (≈ 18.2 µM)	-0.4771
NNC(=O)CCCCCCCCCCC(=O)NN			-2.03		3 (≈ 11.6 µM)	-0.4771
NNC(=O)c1ccccc1N			-2.07		30 (≈ 198 µM)	-1.477
Cc1ccc(C)n1NC(=O)c1cccs1			1.98		40 (≈ 182 µM)	-1.602
CC1CCC(=NNC(=O)c2ccncc2)CC1 (stereo not drawn)			0.315		0.07 (≈ 0.303 µM)	1.1549
NNC(=O)Cc1ccncc1			-2.69		100 (≈ 662 µM)	-2
NNC(=O)c1cccnc1 [NICOTINIC ACID HYDRAZIDE]				-2.32	2 (≈ 14.6 µM)	-0.301
CC(C)/C=N/NC(=O)c1cccs1			0.125		1.2 (≈ 6.11 µM)	-0.07918
NNC(=O)c1ccc(N)cc1				-2.07	6 (≈ 39.7 µM)	-0.7782
CCCCCCCCCC/C=N/NC(=O)c1ccncc1			2.83		0.3 (≈ 1.04 µM)	0.5229
CC1CCC(NNC(=O)c2ccncc2)CC1 (stereo not drawn)			0.594		5 (≈ 21.4 µM)	-0.699
